Measured values reported in patent US10744134B2, “Pharmaceutical composition for cancer immunotherapy and/or immunological activation containing diamino heterocyclic carboxamide compound as active ingredient” (Astellas Pharma Inc., priority 2015, dated 2020).

Experiments:
[1] = system: colon carcinoma cell line MC38; experiment: Tumor volume change in MC38 subcutaneous cancer-bearing mice (Example 2); assay type: in vivo, C57BL/6J mouse; conditions: hemifumarate, oral, 100 mg/kg (free form) once a day for seven days; individuals qd-2 and qd-3; measured on 4th and 7th days; FIG. 2
Method: (§1) Evaluation of Immune Activation of Compound a with Respect to Colon Carcinoma Cell Line MC38 Cancer-Bearing Model
(§2) MC38 subcutaneous cancer-bearing mice were prepared by subcutaneously transplanting MC38 cells on the back of C57BL/6J mouse (female, Charles river, Japan). After confirming the engraftment of the tumor, hemifumarate of the compound A, which is the test compound, was orally administered to seven mice at a dose of 100 mg/kg (in terms of free form) once a day for seven days. As a control, 0.5% of methylcellulose was also orally administered to seven mice at the same dose of 100 mg/kg once a day for seven days, which was the same administration as the group administered at a 100 mg/kg. After measuring the tumor volume change on the 4th and 7th days, spleens and tumors were collected from a total of six mice of three examples (control-1, control-2, and control-3) extracted from the control group and three examples extracted from the compound A administered groups (COMPOUND A 100 mg/kg qd-1, COMPOUND A 100 mg/kg qd-2, and COMPOUND A 100 mg/kg qd-3). Then, staining was performed with anti CD3 antibody (eBioscience), anti CD4 antibody (Biolegend), anti CD8 antibody (eBioscienec), anti CD45 antibody (Biolegend), and the number of positive cells of each antigen was measured using a flow cytometer (BD FACS Verse).

[2] = system: colon carcinoma cell line MC38; experiment: Anti-tumor evaluation (in vivo) in colon carcinoma cell line MC38 cancer-bearing model (Example 1); set-up: species or system C57BL/6J mice; conditions: hemifumarate of compound A, oral, vs control group, FIG. 1
Method: Evaluation of Anti-Tumor (In Vivo) of Compound a with Respect to Colon Carcinoma Cell Line MC38 Cancer-Bearing Model
The colon cancer cell line MC38 cells (National Cancer Institute) were cultured in Dulbecco's modified Eagle's minimum essential medium (DMEM) supplemented with 10% Fetal Bovine Serum (FBS). MC38 subcutaneous cancer-bearing mice were subsequently prepared by subcutaneously transplanting MC38 cells on the back of C57BL/6J mice (female, Charles river, Japan). After confirming the engraftment of the tumor, the change in the tumor volume of each of the group (COMPOUND A 30 mg/kg bid) in which hemifumarate of the compound A, which is a test compound, dissolved in 0.5% of methyl cellulose is orally administered at a dose of 30 mg/kg (in terms of free form) twice a day for 17 days, the group (COMPOUND A 60 mg/kg qd) in which hemifumarate of the compound A is orally administered at a dose of 60 mg/kg (in terms of free form) once a day for 17 days, and the control group in which the compound A is not administered, was measured at a frequency of twice a week.

[3] = system: CD4+ and CD8+ T cells; experiment: Immune activation: flow cytometry of CD4+ and CD8+ T cells in spleen and tumor of MC38 cancer-bearing mice (Example 2); assay type: in vivo, C57BL/6J mouse; conditions: 100 mg/kg qd oral for seven days
Method: as §1, §2

[4] = system: malignant melanoma; conditions: first-line, malignant melanoma patients; cited from earlier work

## CCc1nc(C(N)=O)c(Nc2ccc(N3CCC(N4CCN(C)CC4)CC3)c(OC)c2)nc1NC1CCOCC1 [compound A, 6-ethyl-3-({3-methoxy-4-[4-(4-methylpiperazin-1-yl)piperidin-1-yl]phenyl}amino)-5-(tetrahydro-2H-pyran-4-ylamino)pyrazine-2-carboxamide]
[1]
  tumor volume: the increase in the tumor volume was hardly observed
[2]; 30 mg/kg (free form) twice a day for 17 days
  tumor volume: strong effect of suppressing the increase in the tumor volume
[2]; 60 mg/kg (free form) once a day for 17 days
  tumor volume: strong effect of suppressing the increase in the tumor volume
[3]; individuals qd-2 and qd-3 in which tumor growth was suppressed, FIG. 5
  proportion of the number of CD8+ cells in CD45+ and CD3+ cells in a tumor: the increase of the number of CD8+ cells was observed
[3]; three mice vs three controls, FIG. 3
  proportion of the number of CD4+ cells in CD45+ and CD3+ cells in spleen: the increase in the number of CD4+ cells and CD8+ cells in spleen was observed
[3]; three mice vs three controls, FIG. 4
  proportion of the number of CD8+ cells in CD45+ and CD3+ cells in spleen: the increase in the number of CD4+ cells and CD8+ cells in spleen was observed

## nivolumab: anti-PD-1 antibody marketed as a therapeutic agent for malignant melanoma and non-small cell lung cancer
[4]
  overall survival extended, share of the nivolumab group: 72.9%
